Laboratory results from patent US6348445B1, “Biologically active peptides with reduced toxicity in animals and a method for preparing same” (priority 1992, dated 2002).
pIC50: −log10 of the molar value. Where two headings read alike, the source gives them in different places. Where no end group is shown, it is not given here.

Legend:
[1] = MTD of repeat-dose intraperitoneal administration; assay type: in vivo, SCID mice; conditions: for MTD at 504 h: male, SCID (Fox Chase C.B-17/IcrTac-scidfDF), mouse, in vivo, ip
Description: Determinations of a maximal tolerated dose (MTD) of repeat-dose intraperitoneal (i.p.) administration of MSI-344 or MSI-1857 in 60 SCID mice were done. Mice were injected with various doses of MSI-344 or MSI-1857 twice or thrice per week. Survival and body weight were monitored. On a twice per week dosing schedule, the MTDs of MSI-344 and MSI-1857 were 12 and 134 mg/kg/week, respectively. […] On a thrice per week dosing schedule, no deaths occurred in any groups, with high dose groups of MSI-344 and MSI-1857 receiving 90 mg/kg/week and […], respectively. A transient body weight loss was seen after initial dosing in most MSI-344 and MSI-1857 groups. No body weight loss greater than 6% occurred in any group on the thrice per week dosing schedule.
To determine estimates of MTDs of MSI-344 and MSI-1857 when administered intraperitoneally on repeat-dose regimens in SCID mice. The selection of SCID mice was based on the future plans of using this strain as host for xenograft human tumor efficacy models, and a pre-requisite for determining MTD for chronic administration that may be used during the efficacy model.
SCID mice are immunocompromised and therefore they were housed and handled in sterile environments. They had access to sterile water and sterilized chow ad lib.
A 1 mg/mL solution of MSI-344 was made in saline (0.9% sodium chloride injection USP, Abbott, North Chicago, Ill.) corrected for peptide content. Solutions of MSI-344 at concentrations of 0.6, 0.3, and 0.1 mg/mL were made by diluting the 1 mg/mL solution using saline as diluent. A 10 mg/mL solution of MSI-1857 was made in saline.
Solutions of MSI-1857 at concentrations of 6.7, 3.3, 3, 2, and 1 mg/mL were made by diluting the 10 mg/mL solution using saline as diluent.
Mice (four mice per dose group) were intraperitoneally administered MSI-344 or MSI-1857 using an injection volume of 10 mL/kg of the appropriate solution concentration on a twice per week (Groups 1 through 7) or thrice per week (Groups 8 through 15) dosing schedule every week for 20 weeks. Survival was monitored daily and body weights were recorded three times per week An interim analysis was performed at 3 weeks and the results of this interim analysis is presented in the present report.

[2] = system: A-549 human lung carcinoma cells; assay type: cell-based; conditions: 24 h
Description: (§1) Human lung carcinoma cells, A-549 (ATCC), and human breast carcinoma cells, MDA-435 (from Sandoz), were grown in Ham's F12K medium (GIBCO-BRL) supplemented with […] fetal bovine serum. Human chronic myelogenous leukemia cells, K-562 (ATCC), were maintained in RPMI 1640 medium (GIBCO-BRL) supplemented with 10% fetal bovine serum. Human melanoma cell line, WM 1617 (from the Wistar Institute), was maintained in 2% Tumor media.
(§2) Cytotoxicity assays were performed on the cell lines described above using CytoLite (Packard Instrument Company) following the manufacture's instruction. Briefly, 2×10^4cells/well were seeded into black, 96-well ViewPlates (Packard Instrument Company) in 100 μl/well growth medium. Ser. dilutions of Magainin peptides were then added into the cells and the plates incubated for 24 hours in a humidified 5% CO2 atmosphere at 37° C. Following incubation, 25 μl/well of CytoLite activator solution was added followed by 125 μl/well of amplifier solution. Luminescence was measured on TopCount Microplate Scintillation and Luminescence counter (Packard Instrument Company) using a 1 second count time in SPC (single photon counting) mode at 25 ° C. All assays were performed in triplicate. The peptides tested in this assay were MSI-78(SEQ ID NO: 154 —NH2), MSI-1858(SEQ ID NO: 154 —NH2 Methane Sulfonate), MSI-344(SEQ ID NO: 154 —OH) and MSI-1857(SEQ ID NO: 154 —OH Methane Sulfonate). The results of these assays are shown in FIGS. 2-9 with the corresponding IC50 values in Table VIII. In all cases the activity of the methane sulfonated peptide was as good or better than the parent peptide as indicated by both the survival curves and the IC50 values.

[3] = system: K-562 human chronic myelogenous leukemia cells; assay type: cell-based; conditions: 24 h
Description: as §1, §2

[4] = system: MDA-435 human breast carcinoma cells; assay type: cell-based; conditions: 24 h
Description: as §1, §2

[5] = system: WM 1617 human melanoma cells; assay type: cell-based; conditions: 24 h
Description: as §1, §2

## GIGKFLKKAKKFGKAFVKILKK [MSI-344]
[1]; all surviving groups except the low dose group on the thrice-per-week schedule
  effect of initial dosings on body weight: dose-dependent transient body weight loss
[1]; i.p., SCID mice, interim analysis at 3 weeks
  MTD, thrice per week dosing schedule: greater than or equal to 18 mg/kg/week
[1]; SCID mice, interim analysis at 3 weeks, read-out: MTD, thrice per week dosing schedule
  MTD at 504 h: ≥ 2.57 mg/kg/day
[1]; SCID mice, interim analysis at 3 weeks, read-out: MTD, twice per week dosing schedule (converted)
  MTD at 504 h: 1.71 mg/kg/day
[2]
  pIC50: 5.00
[3]
  pIC50: 4.70
[4]
  pIC50: 5.10
[5]
  pIC50: 5.30
